Results as given in ChEMBL document CHEMBL4483862, “Open-source discovery of chemical leads for next-generation chemoprotective antimalarials” (2018).

System: Plasmodium berghei
Test: Luciferase/luciferin-expressing antifolate-resistant parasites were used to infect a culture of HepG2 cells that were pre-incubated with compounds. Infected hepatocytes emit light due to the luciferase reaction. Assay results are presented as the percent inhibition of light emission compared to control. […]
Assay type: functional
Conditions: sporozoite; for IC90: read-out: LUCIFERASE INFECTION ASSAY - IC90
[1] = read-out: LUCIFERASE INFECTION ASSAY - IC50

| SMILES | IC90 | IC50 [1] | also measured |
| --- | --- | --- | --- |
| Cc1ccc2nc(NC(=O)c3ccc(C#N)cc3)c(C(=O)NC3CCCCC3)n2c1 | > 8.22 µM | – | IC50 (HEPG2TOX_HILL_SLOPE 2.19, HEPG2TOX_R_SQUARED 0.834, PBLUC_HILL_SLOPE 2.97, PBLUC_R_SQUARED 0.239, read-out: LUCIFERASE INFECTION ASSAY - IC50): 4.92 µM |
| Brc1ccc(-[n+]2nc(-c3ccccc3)nn2-c2nn[nH]n2)cc1 | 4.45 µM | – | IC50 (HEPG2TOX_HILL_SLOPE 1.48, HEPG2TOX_R_SQUARED 0.648, PBLUC_HILL_SLOPE 2.42, 13.8, PBLUC_R_SQUARED 0.208, 0.342, read-out: LUCIFERASE INFECTION ASSAY - IC50): 2.56 µM |
| CN(C)c1cccc(NCC2(c3ccnc(-c4ccccc4Cl)c3)CC2)c1 | > 10 µM | > 10 µM | – |
| FC(F)(F)c1nc2ccccc2n1-c1cc(-c2ccccc2)n[nH]1 | > 10 µM | – | IC50 (HEPG2TOX_HILL_SLOPE 5.49, HEPG2TOX_R_SQUARED 0.606, read-out: LUCIFERASE INFECTION ASSAY - IC50): > 10 µM |
| O=C(CN1C(=O)NC2(CCCCC2)C1=O)NC1CCS(=O)(=O)C1 (stereo unspecified) | > 10 µM | > 10 µM | – |
| CN(CC(=O)Nc1nnc(-c2ccccc2)o1)Cc1ccccc1C(F)(F)F | 3.69 µM | – | IC50 (PBLUC_HILL_SLOPE 1.69E+03, PBLUC_R_SQUARED 0.413, read-out: LUCIFERASE INFECTION ASSAY - IC50): 3.69 µM |
| COc1cc(OC)c(NC(=O)CN2CCN(Cc3csc4ccccc34)CC2)cc1Cl | 9.45 µM | – | IC50 (HEPG2TOX_HILL_SLOPE 1.28, HEPG2TOX_R_SQUARED 0.885, PBLUC_HILL_SLOPE 11.3, PBLUC_R_SQUARED 0.661, read-out: LUCIFERASE INFECTION ASSAY - IC50): 7.79 µM |
| Cc1ncc(CC(=O)n2cc(C(=O)c3cc(F)ccc3O)cn2)s1 | > 10 µM | – | IC50 (PBLUC_HILL_SLOPE 0.716, PBLUC_R_SQUARED 0.277, read-out: LUCIFERASE INFECTION ASSAY - IC50): > 10 µM |
| C(=N\Nc1nc2ccccc2[nH]1)/c1sc(N2CCCCC2)nc1-c1cccs1 | > 10 µM | – | IC50 (HEPG2TOX_HILL_SLOPE 5.76, HEPG2TOX_R_SQUARED 0.476, PBLUC_HILL_SLOPE 1.87, PBLUC_R_SQUARED 0.581, read-out: LUCIFERASE INFECTION ASSAY - IC50): 6.38 µM |
| COc1ccc(N(Cc2c(C#N)c(C)nn2-c2ccccc2)S(=O)(=O)c2ccc(C)cc2)cc1 | > 10 µM | – | IC50 (HEPG2TOX_HILL_SLOPE 7.62, HEPG2TOX_R_SQUARED 0.552, PBLUC_HILL_SLOPE 10, PBLUC_R_SQUARED 0.432, read-out: LUCIFERASE INFECTION ASSAY - IC50): 9.18 µM |
| O=S(=O)(c1ccccc1)c1ccc(S(=O)(=O)N2CCCC2)s1 | > 9.23 µM | > 9.23 µM | – |
| Cn1ccc2cc(-c3cn4c(-c5ccc(CO)cc5)cnc4cn3)ccc21 | 0.829 µM | – | IC50 (FFLUC_HILL_SLOPE 16.7, FFLUC_R_SQUARED 0.117, HEPG2TOX_HILL_SLOPE 0.88, HEPG2TOX_R_SQUARED 0.915, PBLUC_HILL_SLOPE 3.4, PBLUC_R_SQUARED 0.717, read-out: LUCIFERASE INFECTION ASSAY - IC50): 0.435 µM |
| CCOC(=O)N1CCC(Nc2ncnc3c2oc2ccccc23)CC1 | > 10 µM | – | IC50 (PBLUC_HILL_SLOPE 2.64, PBLUC_R_SQUARED 0.787, read-out: LUCIFERASE INFECTION ASSAY - IC50): 6.72 µM |
| CCN(CC)S(=O)(=O)c1ccc(-c2csc(Nc3ccccn3)n2)cc1 | > 10 µM | > 10 µM | – |
| Cc1cc2ncc(C(=O)Nc3nc4c(s3)CN(Cc3ccccc3)CC4)c(C)n2n1 | > 10 µM | – | IC50 (PBLUC_HILL_SLOPE 15, PBLUC_R_SQUARED 0.627, read-out: LUCIFERASE INFECTION ASSAY - IC50): 9.24 µM |
| N#Cc1cc(-c2ccc(Cl)cc2)cnc1OC(=O)c1ccc(Cl)cc1 | > 8.94 µM | – | IC50 (HEPG2TOX_HILL_SLOPE 24.3, HEPG2TOX_R_SQUARED 0.913, PBLUC_HILL_SLOPE 3.24, PBLUC_R_SQUARED 0.477, read-out: LUCIFERASE INFECTION ASSAY - IC50): 6.19 µM |
| O=C(Nc1nc(-c2ccc(F)cc2)cs1)c1cccc(S(=O)(=O)N2CCc3ccccc32)c1 | > 10 µM | > 10 µM | – |
| O=C1C=C/C(=N\Nc2ccc3ncsc3c2)c2cccnc21 | > 10 µM | – | IC50 (HEPG2TOX_HILL_SLOPE 2.28, HEPG2TOX_R_SQUARED 0.978, PBLUC_HILL_SLOPE 13.8, PBLUC_R_SQUARED 0.454, read-out: LUCIFERASE INFECTION ASSAY - IC50): 8.95 µM |
| COc1cccc(/C=C/C(=O)Oc2c(Cl)cc(Cl)c3ccc(C)nc23)c1OC | 9.03 µM | – | IC50 (PBLUC_HILL_SLOPE 3.32, PBLUC_R_SQUARED 0.808, read-out: LUCIFERASE INFECTION ASSAY - IC50): 4.66 µM |
| COC(=O)c1c(NC(=O)C(=O)NCCN(C)C)sc2c1CCCC2 | > 9.34 µM | > 9.34 µM | – |
| CCCCCc1ccc(-c2nnc(SCC(C)=O)[nH]2)cc1 | > 10.9 µM | > 10.9 µM | – |
| Cn1c(CC(=O)NNC(=O)/C=C/c2cccc(C(F)(F)F)c2)nc2ccccc21 | 3.99 µM | 3.4 µM | – |

| SMILES | IC90 | IC50 [1] | also measured |
| --- | --- | --- | --- |
| Cc1ccc(S(=O)(=O)Oc2ccccc2/C=N/N=C2\NC(=O)CS2)cc1Cl | > 10 µM | – | IC50 (HEPG2TOX_HILL_SLOPE 8.05, HEPG2TOX_R_SQUARED 0.112, PBLUC_HILL_SLOPE 0.841, PBLUC_R_SQUARED 0.28, read-out: LUCIFERASE INFECTION ASSAY - IC50): > 10 µM |
| O=C(COc1ccccc1CSc1ccc(Cl)cc1)N/N=C\c1ccc(Cl)cc1 | > 7.41 µM | – | IC50 (PBLUC_HILL_SLOPE 0.291, PBLUC_R_SQUARED 0.508, read-out: LUCIFERASE INFECTION ASSAY - IC50): > 7.41 µM |
| Cc1ccc(C2c3c(-c4cc(C)cc(C)c4O)n[nH]c3C(=O)N2CCCO)cc1 (stereo unspecified) | > 8.43 µM | – | IC50 (HEPG2TOX_HILL_SLOPE 0.468, HEPG2TOX_R_SQUARED 0.76, PBLUC_HILL_SLOPE 1.88, PBLUC_R_SQUARED 0.575, read-out: LUCIFERASE INFECTION ASSAY - IC50): 5.49 µM |
| O=C1C=C(c2ccc(Cl)cc2)C(=O)N1Nc1ccc(F)cc1 | > 10.4 µM | – | IC50 (HEPG2TOX_HILL_SLOPE 7.85, HEPG2TOX_R_SQUARED 0.837, PBLUC_HILL_SLOPE 13.2, PBLUC_R_SQUARED 0.145, read-out: LUCIFERASE INFECTION ASSAY - IC50): 10.2 µM |
| CC(C)(C)c1ccc(-c2nnc(SCc3c(Cl)cccc3Cl)n2Cc2ccco2)cc1 | > 6.99 µM | 3.43 µM | – |
| COc1cc2nc(-c3ccccc3)nc(N3CCN(CCN4CCCC4)CC3)c2cc1OC | 7.65 µM | – | IC50 (PBLUC_HILL_SLOPE 1.93, PBLUC_R_SQUARED 0.643, read-out: LUCIFERASE INFECTION ASSAY - IC50): 2.46 µM |
| CC(C)[C@H](NS(=O)(=O)c1ccc2c(c1)OCCO2)C(=O)Nc1nc(-c2ccc(F)c(F)c2)cs1 | > 10 µM | – | IC50 (FFLUC_HILL_SLOPE 26.7, FFLUC_R_SQUARED 0.287, HEPG2TOX_HILL_SLOPE 3.72, HEPG2TOX_R_SQUARED 0.958, PBLUC_HILL_SLOPE 3.86, PBLUC_R_SQUARED 0.4, read-out: LUCIFERASE INFECTION ASSAY - IC50): 6.43 µM |
| Cc1cccc(OCCN(C)Cc2cc(=O)n3c([nH]c4ccccc43)c2C#N)c1 | 7.03 µM | – | IC50 (HEPG2TOX_HILL_SLOPE 0.204, HEPG2TOX_R_SQUARED 0.162, PBLUC_HILL_SLOPE 2.87, PBLUC_R_SQUARED 0.544, read-out: LUCIFERASE INFECTION ASSAY - IC50): 3.27 µM |
| CC(NC(=O)C1CCCN(C(=O)OC(C)(C)C)C1)c1ccc(-n2ccnc2)cc1 (stereo unspecified) | > 2 µM | > 2 µM | – |
| N#Cc1ccnc(N2CCN(c3nc(CSc4ccccc4)nc4sc5c(c34)CCC5)CC2)c1 | > 10 µM | > 10 µM | – |
| OC(CNC1CCCc2ccccc21)COC(c1ccc(F)cc1)c1ccc(F)cc1 (stereo unspecified) | > 10 µM | > 10 µM | – |
| CC1Sc2ccc(Cl)cc2C(=O)/C1=C/c1ccc(C(F)(F)F)cc1 (stereo unspecified) | > 8.95 µM | – | IC50 (PBLUC_HILL_SLOPE 11.4, PBLUC_R_SQUARED 0.0512, read-out: LUCIFERASE INFECTION ASSAY - IC50): > 8.95 µM |
| CCOc1ccccc1NC(=O)c1cc(CC(C)C)oc1C | > 10.9 µM | > 10.9 µM | – |
| N#Cc1ccc(C(=O)Nc2cccc(Oc3ccccc3)c2)cc1 | > 10 µM | – | IC50 (PBLUC_HILL_SLOPE 3.19, PBLUC_R_SQUARED 0.12, read-out: LUCIFERASE INFECTION ASSAY - IC50): 6.33 µM |
| c1cncc(-c2nc(Oc3ccc(-c4nnc5n4CCCCC5)cc3)c3ccccc3n2)c1 | > 10 µM | – | IC50 (PBLUC_HILL_SLOPE 11.7, PBLUC_R_SQUARED 0.282, read-out: LUCIFERASE INFECTION ASSAY - IC50): > 10 µM |
| Cc1c(Cl)c(CN2C(=O)C(=O)N(Cc3cccs3)C2=O)nc2ccccc12 | > 10 µM | > 10 µM | – |
| CCn1c(-c2ccccc2)c(C(=O)COC(=O)/C=C/c2ccco2)c2ccccc21 | > 10 µM | – | IC50 (HEPG2TOX_HILL_SLOPE 1.75, HEPG2TOX_R_SQUARED 0.877, PBLUC_HILL_SLOPE 15.9, PBLUC_R_SQUARED 0.384, read-out: LUCIFERASE INFECTION ASSAY - IC50): 9.6 µM |
| C=CCNC(=O)COc1ccc2c(=O)c(-c3ccc(Cl)cc3)c(C)oc2c1 | > 8.6 µM | > 8.6 µM | – |
| O=C(NCCCn1ccc2ccccc21)Nc1ccc(Cl)c(Cl)c1 | > 10 µM | > 10 µM | – |
| COc1cc(C(=O)Nc2ccc(-c3csc(N4CCOCC4)n3)cc2)cc(Cl)c1OC | > 10 µM | – | IC50 (HEPG2TOX_HILL_SLOPE 2.64, HEPG2TOX_R_SQUARED 0.944, PBLUC_HILL_SLOPE 1.81, PBLUC_R_SQUARED 0.542, read-out: LUCIFERASE INFECTION ASSAY - IC50): 3.98 µM |
| Cc1ccc(S(=O)(=O)c2ccc(C(F)(F)F)cc2[N+](=O)[O-])cc1 | > 9.56 µM | – | IC50 (FFLUC_HILL_SLOPE 11, FFLUC_R_SQUARED 0.463, read-out: LUCIFERASE INFECTION ASSAY - IC50): > 9.56 µM |
